# Active and inactive are the calls of the source. How the calls were made is not given here.
# System: rodent lifetime carcinogenesis bioassay, tumor incidence TD50
# Test: chronic cancer bioassays in animals – CPDB, compiled studies (AID 1745844)
# [1] = mouse, strain B6AKF1, females, oral dosing, site: any site (literature study), lesion: several types, types named in the paper, dosed 76 weeks, study length 76 weeks
# [2] = mouse, strain B6AKF1, females, oral dosing, site: liver, lesion: hepatoma, dosed 76 weeks, study length 76 weeks
# [3] = mouse, strain B6AKF1, females, oral dosing, site: lung, lesion: adenoma, dosed 76 weeks, study length 76 weeks
# [4] = mouse, strain B6AKF1, males, oral dosing, site: any site (literature study), lesion: several types, types named in the paper, dosed 76 weeks, study length 76 weeks
# [5] = mouse, strain B6AKF1, males, oral dosing, site: liver, lesion: hepatoma, dosed 76 weeks, study length 76 weeks
# [6] = mouse, strain B6AKF1, males, oral dosing, site: lung, lesion: adenoma, dosed 76 weeks, study length 76 weeks
# [7] = mouse, strain B6C3F1, females, oral dosing, site: liver, lesion: hepatoma, dosed 76 weeks, study length 76 weeks
# [8] = mouse, strain B6C3F1, females, oral dosing, site: lung, lesion: several types, types named in the paper, dosed 76 weeks, study length 76 weeks
# [9] = mouse, strain B6C3F1, males, oral dosing, site: any site (literature study), lesion: several types, types named in the paper, dosed 76 weeks, study length 76 weeks
# [10] = mouse, strain B6C3F1, males, oral dosing, site: liver, lesion: hepatoma, dosed 76 weeks, study length 76 weeks
structure (smiles),measurement,setting,value
S=C([S-])NCCNC(=S)[S-].[Mn+2],TD50,[1],138 mg/kg/day (inactive)
same,carcinogen call,[2],negative (inactive)
same,carcinogen call,[3],negative (inactive)
same,TD50,[4],106 mg/kg/day (inactive)
same,carcinogen call,[5],negative (inactive)
same,TD50,[6],54.9 mg/kg/day (inactive)
same,carcinogen call,"mouse, strain B6C3F1, females, oral dosing, site: any site (literature study), lesion: one or several types, types not named, dosed 76 weeks, study length 76 weeks",negative (inactive)
same,carcinogen call,[7],negative (inactive)
same,carcinogen call,[8],negative (inactive)
same,TD50,[9],62.3 mg/kg/day (inactive)
same,TD50,[10],128 mg/kg/day (inactive)
same,TD50,"mouse, strain B6C3F1, males, oral dosing, site: lung, lesion: adenoma, dosed 76 weeks, study length 76 weeks",128 mg/kg/day (inactive)
same,TD50,"rat, strain Mongrel, both sexes, by gavage, site: any site (literature study), lesion: several types, types named in the paper, dosed 95 weeks, study length 104 weeks",157 mg/kg/day
CC=CC(=O)Oc1c(C(C)CCCCCC)cc([N+](=O)[O-])cc1[N+](=O)[O-] (stereo not given),carcinogen call,[1],negative (inactive)
same,carcinogen call,[2],negative (inactive)
same,carcinogen call,[3],negative (inactive)
same,TD50,[4],11.9 mg/kg/day (inactive)
same,TD50,[5],2.07 mg/kg/day (inactive)
same,TD50,[6],19.1 mg/kg/day (inactive)
same,TD50,"mouse, strain B6C3F1, females, oral dosing, site: any site (literature study), lesion: several types, types named in the paper, dosed 76 weeks, study length 76 weeks",1.21 mg/kg/day (inactive)
same,TD50,[7],2.5 mg/kg/day (inactive)
same,carcinogen call,[8],negative (inactive)
same,TD50,[9],0.405 mg/kg/day (inactive)
same,TD50,[10],2.32 mg/kg/day (inactive)
same,carcinogen call,"mouse, strain B6C3F1, males, oral dosing, site: lung, lesion: several types, types named in the paper, dosed 76 weeks, study length 76 weeks",negative (inactive)
O=Nc1ccc(NO)cc1,TD50,"mouse, strain B6C3F1, females, in feed, site: any site (literature study), lesion: several types, types named in the paper, dosed 104 weeks, study length 105 weeks",6710 mg/kg/day (inactive)
same,TD50,"mouse, strain B6C3F1, females, in feed, site: liver, lesion: hepatocellular adenoma + hepatocellular carcinoma + neoplastic nodule, dosed 104 weeks, study length 105 weeks",656 mg/kg/day
same,TD50,"mouse, strain B6C3F1, females, in feed, site: lung, lesion: alveolar/bronchiolar adenoma + alveolar/bronchiolar carcinoma, dosed 104 weeks, study length 105 weeks",6660 mg/kg/day
same,TD50,"mouse, strain B6C3F1, males, in feed, site: any site (literature study), lesion: several types, types named in the paper, dosed 104 weeks, study length 105 weeks",936 mg/kg/day (inactive)
same,TD50,"mouse, strain B6C3F1, males, in feed, site: liver, lesion: hepatocellular adenoma + hepatocellular carcinoma + neoplastic nodule, dosed 104 weeks, study length 105 weeks",1.23e+06 mg/kg/day
same,TD50,"rat, strain Fischer 344, females, in feed, site: urinary bladder, lesion: squamous-cell carcinoma + transitional-cell carcinoma + transitional-cell papilloma, dosed 104 weeks, study length 105 weeks",106 mg/kg/day
same,TD50,"rat, strain Fischer 344, females, in feed, site: urinary bladder, lesion: transitional-cell carcinoma, dosed 104 weeks, study length 105 weeks",182 mg/kg/day
same,TD50,"rat, strain Fischer 344, males, in feed, site: any site (literature study), lesion: several types, types named in the paper, dosed 104 weeks, study length 105 weeks",349 mg/kg/day (inactive)
same,TD50,"rat, strain Fischer 344, males, in feed, site: liver, lesion: hepatocellular adenoma + hepatocellular carcinoma + neoplastic nodule, dosed 104 weeks, study length 105 weeks",1130 mg/kg/day
CC1(C)O[C@@H]2C[C@H]3[C@@H]4CCC5=CC(=O)C=C[C@]5(C)[C@@]4(F)[C@@H](O)C[C@]3(C)[C@]2(C(=O)CO)O1,TD50,"rat, strain Charles River CD (Sprague-Dawley), males, in drinking water, site: liver, lesion: hepatocellular adenoma, dosed 104 weeks, study length 104 weeks",0.0917 mg/kg/day
same,TD50,"rat, strain Charles River CD (Sprague-Dawley), males, in drinking water, site: liver, lesion: hepatocellular carcinoma, dosed 104 weeks, study length 104 weeks",0.141 mg/kg/day
same,TD50,"rat, strain Charles River CD (Sprague-Dawley), males, in drinking water, site: liver, lesion: several types, types named in the paper, dosed 104 weeks, study length 104 weeks",0.053 mg/kg/day
C/C=C/C=C/C=O,TD50,"mouse, strain B6C3F1, females, by gavage, site: forestomach, lesion: squamous-cell carcinoma + squamous-cell papilloma, dosed 104 weeks, study length 104 weeks",129 mg/kg/day
same,TD50,"mouse, strain B6C3F1, females, by gavage, site: forestomach, lesion: squamous-cell carcinoma, dosed 104 weeks, study length 104 weeks",580 mg/kg/day
same,TD50,"mouse, strain B6C3F1, females, by gavage, site: forestomach, lesion: squamous-cell papilloma, dosed 104 weeks, study length 104 weeks",165 mg/kg/day
same,TD50,"mouse, strain B6C3F1, females, by gavage, site: skin, lesion: fibrosarcoma + fibrous histiocytoma, dosed 104 weeks, study length 104 weeks",218 mg/kg/day
same,TD50,"mouse, strain B6C3F1, males, by gavage, site: any site (literature study), lesion: several types, types named in the paper, dosed 104 weeks, study length 104 weeks",279 mg/kg/day
same,TD50,"mouse, strain B6C3F1, males, by gavage, site: forestomach, lesion: squamous-cell carcinoma + squamous-cell papilloma, dosed 104 weeks, study length 104 weeks",279 mg/kg/day
same,TD50,"mouse, strain B6C3F1, males, by gavage, site: forestomach, lesion: squamous-cell papilloma, dosed 104 weeks, study length 104 weeks",354 mg/kg/day
same,TD50,"mouse, strain B6C3F1, males, by gavage, site: liver, lesion: hepatocellular adenoma + hepatoblastoma + hepatocellular carcinoma, dosed 104 weeks, study length 104 weeks",211 mg/kg/day
same,TD50,"mouse, strain B6C3F1, males, by gavage, site: lung, lesion: alveolar/bronchiolar adenoma + alveolar/bronchiolar carcinoma, dosed 104 weeks, study length 104 weeks",1980 mg/kg/day
same,TD50,"mouse, strain B6C3F1, males, by gavage, site: tongue, lesion: squamous-cell carcinoma, dosed 104 weeks, study length 104 weeks",2080 mg/kg/day
same,TD50,"rat, strain Fischer 344, females, by gavage, site: any site (literature study), lesion: several types, types named in the paper, dosed 104 weeks, study length 104 weeks",112 mg/kg/day
same,TD50,"rat, strain Fischer 344, females, by gavage, site: forestomach, lesion: squamous-cell papilloma, dosed 104 weeks, study length 104 weeks",102 mg/kg/day
same,TD50,"rat, strain Fischer 344, males, by gavage, site: adrenal medulla, lesion: pheochromocytoma, malignant, dosed 104 weeks, study length 104 weeks",415 mg/kg/day
same,TD50,"rat, strain Fischer 344, males, by gavage, site: any site (literature study), lesion: several types, types named in the paper, dosed 104 weeks, study length 104 weeks",107 mg/kg/day
same,TD50,"rat, strain Fischer 344, males, by gavage, site: forestomach, lesion: squamous-cell carcinoma + squamous-cell papilloma, dosed 104 weeks, study length 104 weeks",44.7 mg/kg/day
same,TD50,"rat, strain Fischer 344, males, by gavage, site: forestomach, lesion: squamous-cell papilloma, dosed 104 weeks, study length 104 weeks",46.1 mg/kg/day
O=NN1CC=CCO1,TD50,"rat, strain Sprague-Dawley, both sexes, in drinking water, site: any site (literature study), lesion: malignant tumor, dosed 87 weeks, study length 101 weeks",90.6 mg/kg/day
same,TD50,"rat, strain Sprague-Dawley, both sexes, in drinking water, site: any site (literature study), lesion: several types, types named in the paper, dosed 87 weeks, study length 101 weeks",110 mg/kg/day
same,TD50,"rat, strain Sprague-Dawley, both sexes, in drinking water, site: liver, lesion: hepatoma, dosed 87 weeks, study length 101 weeks",417 mg/kg/day (inactive)
CC(C)NCC(O)c1ccc2ccccc2c1 (stereo not given),carcinogen call,"mouse, strain CF-1, females, in feed, site: liver, lesion: one or several types, types not named, dosed 78 weeks, study length 78 weeks",negative (inactive)
same,TD50,"mouse, strain CF-1, females, in feed, site: lung, lesion: adenoma, dosed 78 weeks, study length 78 weeks",1300 mg/kg/day (inactive)
same,TD50,"mouse, strain CF-1, males, in feed, site: liver, lesion: adenoma, dosed 78 weeks, study length 78 weeks",1820 mg/kg/day (inactive)
same,carcinogen call,"mouse, strain CF-1, males, in feed, site: liver, lesion: carcinoma, dosed 78 weeks, study length 78 weeks",negative (inactive)
same,TD50,"mouse, strain CF-1, males, in feed, site: lung, lesion: adenoma, dosed 78 weeks, study length 78 weeks",931 mg/kg/day (inactive)
same,TD50,"mouse, strain Not specified, females, in feed, site: thymus gland, lesion: one or several types, types not named, dosed 64 weeks, study length 64 weeks",408 mg/kg/day
same,TD50,"mouse, strain Not specified, males, in feed, site: thymus gland, lesion: one or several types, types not named, dosed 64 weeks, study length 64 weeks",1930 mg/kg/day
CN(CCCC(=O)O)N=O,TD50,"rat, strain F344/DuCrj, males, in drinking water, site: urinary bladder/ureter, lesion: several types, types named in the paper, dosed 40 weeks, study length 78 weeks",0.982 mg/kg/day
same,TD50,"rat, strain F344/DuCrj, males, in drinking water, site: urinary bladder/ureter, lesion: transitional-cell carcinoma, dosed 40 weeks, study length 78 weeks",4.23 mg/kg/day

# Reference: PubChem BioAssay AID1745844 (Carcinogenic Potency Database (CPDB), 2022)
